# Source: ChEMBL document CHEMBL1201862, “PubChem BioAssay data set” (2004)
# Activity calls are given as the source filed them.
# Columns and labels:
# [1] = Luminescence Cell-Based Dose Response HTS to Identify Inhibitors of 5'UTR Stem-Loop Driven Prion Protein mRNA Translation in H4 Neuroglioblastoma Cells. [Related pubchem assays: 1827 (Project Summary), 1813 (Primary HTS)]; format: functional
# Streptococcus = test: Group A Streptococcus viability loss, dose response, counter-screen for streptokinase expression inhibitor project, luminescence, BacTiterGlo (AID 1915); format: functional, organism-based;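 note: potency for reduction of bacterial viability or growth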
# [2] = test system: Streptococcus sp. 'group A'; test: growth inhibition of control SK(-) GAS strain, dose response, counter-screen for streptokinase expression inhibitor project, luminescence, kanamycin, BacTiterGlo, confirmation (AID 1900); format: functional, organism-based
# [3] = inhibitors of SNCA 5'UTR-driven reporter translation, confirmation, H4 neuroglioma cells, luminescence (AID 1988); format: functional, cell-based
# [4] = inhibitors of firefly luciferase expression or activity, dose response, H4 neuroglioma cells, luminescence (AID 1990); format: functional, cell-based
# Vero = test: cells; format: functional; conditions: Chlorocebus sabaeus
# SN12K1 = test: cells; format: functional; conditions: Homo sapiens
# P388/ADR = test: cells; format: functional; conditions: Mus musculus
# P388 = test: cells; format: functional; conditions: Mus musculus
# [5] = target: DNA dC->dU-editing enzyme APOBEC-3G (Homo sapiens, UniProt Q9HC16); format: functional;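 note: Dose-response counterscreen measuring inhibition of APOBEC3G DNA deaminase activity, run while confirming APOBEC3A inhibitors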
# Chain of DNA dC->dU-editing enzyme APOBEC-3G (Q9HC16 whole entry): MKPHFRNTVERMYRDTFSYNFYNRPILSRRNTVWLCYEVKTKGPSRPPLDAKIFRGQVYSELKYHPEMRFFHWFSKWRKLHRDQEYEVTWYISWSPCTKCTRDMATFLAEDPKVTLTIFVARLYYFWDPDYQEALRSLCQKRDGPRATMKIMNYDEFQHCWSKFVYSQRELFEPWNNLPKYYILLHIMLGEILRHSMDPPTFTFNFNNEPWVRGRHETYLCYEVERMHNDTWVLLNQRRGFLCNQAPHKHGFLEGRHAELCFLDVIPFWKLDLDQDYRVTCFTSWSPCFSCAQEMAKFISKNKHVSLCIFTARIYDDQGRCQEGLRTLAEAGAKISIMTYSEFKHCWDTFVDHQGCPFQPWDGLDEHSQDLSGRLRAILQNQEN
# [6] = target: DNA dC->dU-editing enzyme APOBEC-3A (Homo sapiens, UniProt P31941); test: Dose Response confirmation of small molecule APOBEC3A DNA Deaminase Inhibitors via a fluorescence-based single-stranded DNA deaminase assay. [Related pubchem assays (depositor defined):AID493011, AID493024]; format: functional
# Chain of DNA dC->dU-editing enzyme APOBEC-3A (P31941 whole entry): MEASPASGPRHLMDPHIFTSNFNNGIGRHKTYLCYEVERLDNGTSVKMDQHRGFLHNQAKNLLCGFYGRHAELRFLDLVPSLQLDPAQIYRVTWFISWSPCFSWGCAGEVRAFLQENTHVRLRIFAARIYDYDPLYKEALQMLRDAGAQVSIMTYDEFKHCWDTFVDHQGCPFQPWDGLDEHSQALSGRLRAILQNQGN
# [7] = growth suppression of beta-catenin-knockout colon cells, dose response, cell-based, HCT116, human colon tumor (AID 1045); format: functional;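 note: HCT116 colon tumor cells with beta catenin knocked out; cells exposed to compound for 60 hours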
# [8] = growth suppression of PTEN-null colon cells, dose response, cell-based, HCT116 PTEN knockout (AID 1047); format: functional;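 note: HCT116 colon tumor cells with PTEN knocked out; cells exposed to compound for 60 hours before readout; potency for loss of cell viability measured by luminescence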
# [9] = HEp-2 cell cytotoxicity, dose response, cytotoxicity control for RSV inhibitor project, HTS (AID 2410); format: functional; conditions: human respiratory syncytial virus
# [10] = target: T1, Probable nicotinate-nucleotide adenylyltransferase (Staphylococcus aureus (strain N315), UniProt P65502); format: functional, Staphylococcus aureus subsp. aureus N315;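 for IC50 Mean: confirmatory dose-response retesting of NadD inhibitor hits first found in an ultra-high-throughput screen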
# T1 sequence (P65502 whole entry): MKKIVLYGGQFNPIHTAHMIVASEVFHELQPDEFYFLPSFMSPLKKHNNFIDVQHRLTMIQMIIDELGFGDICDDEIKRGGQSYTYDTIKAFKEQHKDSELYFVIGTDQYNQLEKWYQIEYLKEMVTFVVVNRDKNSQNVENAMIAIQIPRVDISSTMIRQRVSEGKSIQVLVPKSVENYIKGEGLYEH
# [11] = target: T1, Probable nicotinate-nucleotide adenylyltransferase; format: functional, Staphylococcus aureus subsp. aureus N315; conditions: read-out: IC50_Mean
# [12] = target: T2, Zinc finger protein mex-5 (Caenorhabditis elegans, UniProt Q9XUB2); test: MEX-5/TCR-2 RNA interaction inhibitors, dose response, biochemical, C. elegans, fluorescence polarization (AID 1960)
# T2 sequence (Q9XUB2 whole entry): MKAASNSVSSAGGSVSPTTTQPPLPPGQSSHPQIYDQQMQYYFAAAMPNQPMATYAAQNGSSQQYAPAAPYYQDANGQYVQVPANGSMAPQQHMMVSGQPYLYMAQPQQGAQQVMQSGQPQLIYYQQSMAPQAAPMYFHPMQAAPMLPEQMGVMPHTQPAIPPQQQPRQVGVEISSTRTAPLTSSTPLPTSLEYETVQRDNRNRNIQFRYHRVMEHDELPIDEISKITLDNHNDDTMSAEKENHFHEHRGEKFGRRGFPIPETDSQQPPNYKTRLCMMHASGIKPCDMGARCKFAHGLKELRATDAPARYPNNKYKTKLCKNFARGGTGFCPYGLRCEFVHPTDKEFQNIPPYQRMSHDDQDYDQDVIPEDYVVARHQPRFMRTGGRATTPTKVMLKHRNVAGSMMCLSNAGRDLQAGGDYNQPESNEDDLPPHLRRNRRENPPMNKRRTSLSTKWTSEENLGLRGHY
# [13] = target: T3, RNA-binding protein pos-1 (Caenorhabditis elegans, UniProt G5EF15); test: inhibitors of POS-1/mex-3 RNA binding, dose response, biochemical, fluorescence polarization (AID 1964);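 note: purified POS-1 fused to maltose binding protein made in E. coli; potency of compounds blocking POS-1 binding to fluorescent RNA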
# T3 sequence (G5EF15 whole entry): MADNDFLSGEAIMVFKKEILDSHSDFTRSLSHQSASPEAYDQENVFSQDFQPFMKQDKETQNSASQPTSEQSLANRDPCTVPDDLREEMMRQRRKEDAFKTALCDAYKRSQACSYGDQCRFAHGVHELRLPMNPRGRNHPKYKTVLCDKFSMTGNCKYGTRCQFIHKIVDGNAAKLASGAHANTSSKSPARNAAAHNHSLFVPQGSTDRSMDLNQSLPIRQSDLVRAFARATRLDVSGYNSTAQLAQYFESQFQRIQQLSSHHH
smiles,measurement,setting,value
CC(C)(C)c1ccc(C(=O)NNC(=S)NC(=O)c2cccnc2)cc1,EC50,[1],18.2 µM (active)
same,EC50,Streptococcus,2.42 µM (active)
same,EC50,[2],0.47 µM (active)
same,EC50,[3],10.8 µM (active)
same,EC50,[4],14.4 µM (active)
same,CC50,Vero,> 25 µM (active)
O=C1C(CO)=C[C@H](O)[C@H]2O[C@@H]12,GI50,SN12K1,116 µM (inactive)
same,GI50,P388/ADR,29.9 µM (inactive)
same,GI50,P388,38.9 µM (inactive)
CC(C(=O)O)c1cnn(-c2ccccc2)c1-n1cccc1 (stereo not given),GI50,SN12K1,> 100 µM (inactive)
same,GI50,P388/ADR,> 100 µM (inactive)
same,GI50,P388,> 100 µM (inactive)
COCCNC1=N[C@@H](c2ccc(Br)cc2)C(C(=O)OC)=C(C)N1Cc1ccccc1,IC50,[5],15.1 µM (active)
same,IC50,[6],12 µM (active)
N#CC1=C(N)OC2=C(CC/C2=C\c2ccccc2Cl)C1c1ccccc1Cl (stereo not given),EC50,[7],18.3 µM (active)
same,EC50,[8],21.1 µM (active)
same,CC50,Vero,22 µM (active)
C#CCn1/c(=N/C(=O)c2cc(-c3cccs3)nc3ccccc23)sc2cc(S(N)(=O)=O)ccc21,CC50,[9],> 50 µM (active)
same,IC50,[10],12.8 µM (active)
same,IC50,[11],24.6 µM (active)
CC1=NN(C(=O)c2ccc(C)cc2)C(=O)C1/N=N/c1ccccc1C(=O)O (stereo not given),GI50,SN12K1,> 100 µM (inactive)
same,GI50,P388/ADR,> 100 µM (inactive)
same,GI50,P388,17.5 µM (inactive)
Cc1cccc(-n2nc3c(c2NC(=O)c2ccc(Br)o2)CSC3)c1,IC50,[10],4.58 µM (active)
same,IC50,[11],17.5 µM (active)
CCCc1n(CC(O)COCc2ccccc2)c2ccccc2[n+]1C (stereo not given),IC50,[5],4.55 µM (active)
same,IC50,[6],3.16 µM (active)
C[C@@H]1C[C@]2(C[C@@H](C)[C@H]3C(C[C@@]4(C)CCC[C@@H]5C6=C[C@H](CCC34C)OC6=CC(=O)OC5(C)C)O2)OC1=O (stereo not given in full),GI50,SN12K1,> 51.5 µM (inactive)
same,GI50,P388/ADR,> 51.5 µM (inactive)
same,GI50,P388,> 51.5 µM (inactive)
CCCCCCCCCC[S+]([O-])CC(CO)NC(=O)/C=C/c1c(C)nc(O)nc1O (stereo not given),GI50,SN12K1,0.612 µM (active)
same,GI50,P388/ADR,2.25 µM (inactive)
same,GI50,P388,0.0443 µM (active)
Cc1cc(C=C2C(=O)NC(=O)NC2=O)c(C)n1-c1cccnc1,EC50,[12],36.7 µM (inconclusive)
same,EC50,[13],64.3 µM (active)
